Laboratory results as given in PMC8707212, “Immunosuppressive Sesquiterpenoids from the Edible Mushroom Craterellus odoratus” (Journal of Fungi, 2021).

Assays:
B lymphocyte cells = experiment: LPS-induced B-cell proliferation ([3H]-thymidine uptake); assay type: cell-based, BALB/c mice; settings: Mus musculus, spleen cells stimulated with 10 µg/mL LPS
Protocol: (§1) Female BALB/c mice were sacrificed by cervical dislocation, and their spleens were aseptically removed. After cell debris, mononuclear cell suspensions were prepared, and clumps were removed. Erythrocytes were depleted with ammonium chloride buffer solution. Lymphocytes were washed and resuspended in RPMI 1640 medium supplemented with 10% FBS, penicillin (100 U/mL), and streptomycin ([…]).
As mentioned above, fresh spleen cells were obtained from female BALB/c mice (18–20 g). Similarly, the 5 × 10^5 spleen cells were cultured at the same conditions. The cultures, with or without various concentrations of compounds, were stimulated with 5 µg/mL of concanavalin A (ConA) to induce the T cells’ proliferative response or 10 µg/mL of lipopolysaccharide (LPS) to induce B cells’ proliferative response. Proliferation was assessed in terms of uptake of [^3H]-thymidine during 8 h of pulsing with 25 µL/well of [^3H]-thymidine, then cells will be harvested onto glass fiber filters. A Beta scintillation counter was used to count the incorporated radioactivity. Cells treated without any stimuli were used as a negative control. The immunosuppressive activity was expressed as the concentration of the compound that inhibited T or B cell proliferation to 50% (IC50) of the control value. Both the cytotoxicity and proliferation assessment were repeated twice.

[1] = Cytotoxicity on mouse spleen cells (CCK-8 assay); assay type: cell-based, BALB/c mice; settings: female, fresh mouse spleen cells (splenic lymphocytes), BALB/c mouse spleen cells
Protocol: as §1
We used the Cell Counting Kit-8 (CCK-8) assay to test cytotoxicity. In brief, fresh spleen cells were obtained from female BALB/c mice (18–20 g). Spleen cells (1 × 10^6 cells) were seeded in triplicate in 96-well flat plates and cultured at 37 °C for 48 h, with or without compounds of various concentrations, in a humidified and 5% CO2-containing incubator. A certain amount of CCK-8 was added to each well during the last 8–10 h of culture. At the end of the culture, we use a microplate reader (Bio-Rad 650) to measure the OD value at 450 nm. […] Only the OD value of culture medium is used as background. The cytotoxicity of compounds was expressed as the concentration of the compounds that reduces cell viability to 50% (CC50).

T lymphocyte cells = experiment: ConA-induced T-cell proliferation ([3H]-thymidine uptake); assay type: cell-based, BALB/c mice; settings: Mus musculus, spleen cells stimulated with 5 µg/mL ConA, read-out: Con A-Induced T-Cell Proliferation IC50
Protocol: as §1

Row | melting point [°C] | SMILES | IC50 (B lymphocyte cells) [µM] | CC50 at 48 h [1] [µM] | IC50 (T lymphocyte cells) [µM]
1 |  | CC(=CC(O)CC12COC3(C)CCC1CC32)C(=O)O (stereo not shown) [Compound 20, massarinolin B] | 0.67 ± 0.004 | > 40 | 0.98 ± 0.01
2 |  | CC(=CCCC1(C)C2CCC(CO)C1(O)C2)C(=O)O (stereo not shown) [Compound 14, Craterodoratin N] | 13.3 ± 1.29 | > 40 | 
3 |  | CC(=CCCC1(C)C2CCC(CO)C1C2)C(=O)O (stereo not shown) [Compound 13, Craterodoratin M] | 15.4 ± 1.03 | > 40 | 
4 |  | CC(=CC(=O)CC12C(=O)OC3(C)CCC1CC32)C(=O)O (stereo not shown) [Compound 12, Craterodoratin L] | 13.7 ± 0.65 | > 40 | 
5 | 180.7 to 182.4 | CC(=CCCC1(C)C2CCC(CO)(C2)C1O)C(=O)O (stereo not shown) [Compound 3, Craterodoratin C] | 12.6 ± 1.14 | > 40 | 
6 |  | C=C1C2CN(CC(=O)O)CC3C2C(C(C)C)CCC13C (stereo not shown) [Compound 19, Craterodoratin S] | 22.7 ± 1.67 | > 40 | 
7 |  | CC(=CC1CC23C4CCC(C)(OC2O1)C3C4)C(=O)O (stereo not shown) [Compound 23, donacinoic acid A] | 13.2 ± 0.97 | > 40 | 
8 |  | C=C1CCC2(O)CC1C2(C)CCC=C(C)C(=O)O (stereo not shown) [Compound 15, Craterodoratin O] | 17.1 ± 1.14 | > 40 | 
9 |  | CC(=CC(O)CC12COC3(CO)CCC1CC32)C(=O)O (stereo not shown) [Compound 10, Craterodoratin J] | 19.4 ± 0.48 | > 40 | 
10 |  | C=C1CCC2CC1C2(COC(C)=O)CC(O)C=C(C)C(=O)O (stereo not shown) [Compound 17, Craterodoratin Q] |  | > 40 | 31.5 ± 1.79
